{"source": "patent US20040202647A1", "about": "“Compositions and methods related to nitrotyrosine - containing compounds as antigenic agents” (priority 2002, published 2004)", "test_system": "splenocytes from naïve C57BI/6 mice", "assay_type": "cell-based", "conditions": "naïve splenocytes plus RMA-S pulsed with 10 uM peptide, IL-2 added after 4 days", "note": "Like-named read-outs stand apart in the source and are kept apart here.", "data": [{"sequence": "KAVYNFATM [non-nitrated LCMV gp33 peptide]", "values": [{"measurement": "outgrowth of CD8^+ T cells", "value": "not"}, {"measurement": "outgrowth of CD8^+ T cells", "setting": "listed as conventional gp33-41 peptide", "value": "not observed"}]}]}
